According to patent US20220257571A1, “INHIBITOR OF MAP KINASE INTERACTING SERINE/THREONINE KINASE 1 (MNK1) AND MAP KINASE INTERACTING SERINE/THREONINE KINASE 2 (MNK2), CANCER THERAPY AND THERAPEUTIC COMBINATIONS” (FUNPACIÓ HOSPITAL UNIVERSITARI VALL D'HEBRON - INSTITUT DE …, priority 2019, published 2022):

Legend:
[1] = system: eIF4E phosphorylation in melanoma cells (A375M); test: titration of eIF4E phosphorylation in A375M cells; type: cell-based
Method: (§1) Commercially available MDA-MB-231, MDA-MB-468, MCF7 and A375M, IMR90 (IMR-90 (ATCC® CCL-186TH) cells were grown at 37° C. and 5% CO2 in DMEM medium (Dulbecco's Modified Eagle Medium, 4.5 g/I glucose; 30 mg/I L-Glutamine (Gibco)) supplemented with 10% foetal bovine serum, 100 U/ml penicillin and 100 μg/ml streptomycin.
(§2) Inhibition of eIF4E phosphorylation was quantified by Western Blot. Cells were seeded in 60 mm plates (700,000 cells for 24 h, 500,000 cells for 48 h and 300,000 cells for 72 h).
(§3) After 24 h, the treatments were added. The stocks of compounds were prepared in […] at a concentration 200 times more concentrated than the treatment concentration. Thus, in all cases, the final concentration of DMSO in the medium was 0.5%.
After incubation, proteins were removed and Western Blot was performed. On ice, the plates were washed with PBS and the cells were lysed with 60 μl lysis buffer (50 mM Tris, 200 mM NaCl, 5 mM EDTA, 0.1% Triton 100×, pH 7.5 supplemented with protease inhibitors (EDTA-free Protease Inhibitor Cocktail Set III, Calbiochem) and phosphatase inhibitors (Phosphatase Inhibitor Cocktail Set II, Calbiochem)). The samples were centrifuged at 15,000 g and the supernatant was quantified by the Bradford method. […] Selectivity against MNK was analysed with ERK, p-ERK, MNK1, p-MNK1, 4EBP1 and p-4EBP1 antibodies. […]

MDA-MB-231 cells = test: in vitro proliferation assay (crystal violet), MDA-MB-231; type: cell-based, human; settings: tumour cells MDA-MB-231, concentrations necessary to inhibit MNK activity
Method: as §1
(§4) In 96-well plates, 5000 cells were seeded for each condition. After 24 h, the cells were treated with the compound at the corresponding concentration. The stocks of compounds were prepared in 100% DMSO at a concentration 200 times more concentrated than the treatment concentration. Thus, in all cases, the final concentration of DMSO in the medium is 0.5%. After incubation, the medium was removed and the cells were fixed with 4% PFA (100 μl per well) for 30 minutes. Two washes with PBS were performed.
(§5) Cells were stained with crystal violet (0.5% in EtOH): 100 μl were added to each well, stirred for 15 minutes, washed with water and left to dry. The content of each well was dissolved in 200 μl of 15% AcOH and the absorbance thereof was measured at 595 nm.

[2] = system: PD-L1 in MDA-MB-231 cells; test: PD-L1 levels by western blot in MDA-MB-231 cells; type: cell-based, human
Method: MDA-MB-231 cells were treated for 48 h with the indicated concentrations of the inhibitors. DMSO was used as vehicle control. Protein extracts were prepared and western blot analysis were carried out. Data are depicted in FIG. 10.

[3] = system: eIF4E phosphorylation in MDA-MB-231 cells; test: inhibition of eIF4E phosphorylation by Western Blot in MDA-MB-231 cells; type: cell-based, human
Method: as §1, §2, §3
After incubation, proteins were removed and Western Blot was performed. On ice, the plates were washed with PBS and the cells were lysed with 60 μl lysis buffer (50 mM Tris, 200 mM NaCl, 5 mM EDTA, 0.1% Triton 100×, pH 7.5 supplemented with protease inhibitors (EDTA-free Protease Inhibitor Cocktail Set III, Calbiochem) and phosphatase inhibitors (Phosphatase Inhibitor Cocktail Set II, Calbiochem)). The samples were centrifuged at 15,000 g and the supernatant was quantified by the Bradford method. The samples were all diluted to the same concentration with a lysis buffer and loading buffer (Laemmli buffer) and denatured for 5 minutes at 95° C. The proteins were separated on a 12% […] gel (20 μg were loaded per well) and transferred to a PDVF (Polyvinylidene fluoride) membrane. β-Actin antibodies, abbreviated as “actin” in the figures (Calbiochem), eIF4E (anti-rabbit, Cell signalling), and phosphorylated-eIF4E (S209) (anti-rabbit, Cell signalling) in 5% BSA in TBST were used to study the activity of the compounds. Selectivity against MNK was analysed with ERK, p-ERK, MNK1, p-MNK1, 4EBP1 and p-4EBP1 antibodies.

[4] = system: IMR90 cells, non-transformed fibroblasts; test: cell growth (crystal violet) and cell death (PI/Hoechst) in IMR90 cells; type: cell-based
Method: as §1
Knock-out mice of the EB1 target kinases MNK1 and MNK2 are viable (Ueda et al 2004; PMID: 15254222). […] Cell growth was measured by crystal violet assay. Cell death was determined by Propidium Iodid (PI)/Hoechst staining and the ratio of dead cell (PI positive) among all analyzed cells (Hoechst) was determined. Cis-platin treatment was included as positive control. […] Minimal side effects for patients are therefore predictable.

MNK1/2 = test: radiometric kinase assay (33PanQinase Activity Assay), IC50; type: biochemical
Method: The kinase activity of the compound was measured by a radiometric kinase assay (^33PanQinase® Activity Assay) carried out by Proqinase (www.proqinase.com).
The assays were carried out in 96-well FlashPlates™ by PerkinElmer (Boston, Mass., USA) with a reaction volume of 50 μl. The reaction cocktail was pipetted in 4 steps: (1) 20 μl buffer, (2) 5 μl ATP solution (in H2O), (3) 5 μl compound (in 10% DMSO) and (4) 20 μl enzyme/substrate mixture. Lastly, the cocktail contained 70 mM HEPES-NaOH pH 7.5, 3 mM MgCl2, 3 mM MnCl2, 3 μM sodium orthovanadate, 1.2 mM DTT, 50 μg/ml PEG20000, ATP (1 μM for MNK1 and 0.3 μM for MNK2), [γ-^33P]-ATP (approx. […] per well), protein kinase (variable amounts depending on the batch) and substrate (2 μg/50 μl).
Reaction cocktails were incubated at 30° C. for 60 minutes. The reaction was stopped with 50 μl of 2% H3PO4 (v/v), the plates were sucked, they were washed twice with 200 μl of 0.9% NaCl (w/v) and the incorporation of ^33Pi (MicroBeta microplate scintillation counter, Wallac) was determined. All assays were performed with a Beckman Coulter/SAGIAN™ system.
The residual activity (in %) for each well of a particular plate was calculated using the following formula (wherein high control is the kinase activity in absence of an inhibitor and low control is the radioactivity value of the substrate in absence of a kinase).

MCF10 cells = test: in vitro proliferation assay (crystal violet), MCF10; type: cell-based; settings: non-tumour cells MCF10, concentrations necessary to inhibit MNK activity
Method: MCF10A cells (also commercially available) were grown in DMEM/F-12 medium (Dulbecco's Modified Eagle Medium: 3.125 g/L D-Glucosa, 365 mg/L L-Glutamine, Nutrient Mixture F-12 (Gibco)) supplemented with 10% FBS, 100 U/ml penicillin, 100 μg/ml streptomycin, 1% L-Glutamine (Cambrex), 10 ng/ml choleric toxin (Sigma-Aldrich), 0.005 mg/ml insulin (Sigma), 100 ng/ml hydrocortisone (Sigma) and 20 ng/ml EGF (Epidermal growth factor, Sigma).
as §4, §5

For Nc1n[nH]c2nc(-c3ccccc3)cc(-c3ccccc3)c12 [EB1, 4,6-diphenyl-1H-pyrazolo[3,4-b]pyridin-3-amine], the “activity as MNK inhibitor (eIF4E phosphorylation)” value [1] was “active”, the “effect on cell growth” value (MDA-MB-231 cells) was “does not affect the cell growth” and the “levels of PD-L1” value ([2]; MDA-MB-231, 48 h) was “reduces levels of PD-L1”. For the same molecule, the “potency on PD-L1 compared with eFT508 and CGP57380” value ([2]; at comparable inhibition rates of eIF4E phosphorylation) was “equally potent or superior”, the EC50 ([3]; Homo sapiens, MDA-MB-231 triple-negative breast cancer cells, read-out: in vitro EC50, inhibition of eIF4E phosphorylation) was ~1500 nM and the “concentration at which eIF4E phosphorylation is significantly reduced” value ([3]; MDA-MB-231) was “greater than 2.5 μM”. For the same molecule, the “concentration giving almost complete inhibition of eIF4E phosphorylation” value ([3]; MDA-MB-231) was ≥ 2.5 µM, the “duration of the effect on eIF4E phosphorylation” value ([3]; MDA-MB-231) was “at least 72 h” and the “reversal of the increased eIF4E phosphorylation caused by doxorubicin” value ([3]; MDA-MB-231, 5 μM EB1 with doxorubicin) was “can be reversed”. For the same molecule, the “effect on components of the signalling pathway (p-MNK, ERK, 4E-BP1)” value ([3]; MDA-MB-231, Western Blot) was “does not affect any of the components of the signalling pathway”, the cell death ([4]; IMR90, PI/Hoechst staining) was “does not induce cell death” and the cell growth arrest ([4]; IMR90, crystal violet) was “does not cause significant cell growth arrest”. For the same molecule, the “mode of MNK1/2 inhibition” value (MNK1/2) was “non-ATP competitive” and the “effect on cell growth” value (MCF10 cells) was “does not affect the cell growth”.
